The target in test [1] is human (hACC2) (Homo sapiens, UniProt O00763). In words: In vitro ACC inhibition assay (ADP-Glo), hACC2. The format is biochemical. The conditions noted are these: 5 nM ACC2, 20 μM ATP, 20 μM acetyl-CoA. The method, then: The detailed procedure is as follows. […] 10 μL ADP glo reagent was added. […] 20 μL kinase detection reagent was added.
Test [2] relates to C. albicans. Description: Antifungal Activity Assay (broth microtiter MIC), C. albicans. The format is cell-based, Candida albicans. The following applies: Candida albicans, ATCC90028, 48 h. The method, boiled down: (§1)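 MICs were scored by eye at 48 h relative to the growth control. Plates followed CLSI M27-A3, with Candida suspensions in RPMI 1640+MOPS giving a final 2.5×10^3 CFU/mL; the colonies came from Sabouraud agar grown overnight at 35 °C.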

Test [3] deals with C. krusei. In words: Antifungal Activity Assay (broth microtiter MIC), C. krusei. The conditions noted are these: Pichia kudriavzevii, ATCC6258, 48 h. The format is cell-based, Candida krusei. The method, boiled down:
as §1

Test [4] concerns C. parapsilosis. In words: Antifungal Activity Assay (broth microtiter MIC), C. parapsilosis. The format is cell-based, Candida parapsilosis. The conditions noted are these: Lodderomyces parapsilosis, ATCC22019, 48 h. The method, boiled down:
as §1

Test [5] deals with Botrtyis cinerea (Bc). In words: Growth inhibition assay of fungal pathogens, Bc. The following applies: 48 h, growth inhibition at 48 hours vs 2% DMSO control. The format is cell-based. The gist of the method: (§2)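 Read-out: OD600 plus visual rating at 24 and 48 h, blank (media + 2% DMSO) subtracted. Percent inhibition was derived at 48 h versus the 2% DMSO control. Spores were grown in 17% V8 broth with compound at 50/10/2 or 2/0.4/0.08 ppm final.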

Test [6] relates to Collectotrichum graminicola (Cg). In words: Growth inhibition assay of fungal pathogens, Cg. The format is cell-based. The conditions noted are these: 48 h, growth inhibition at 48 hours vs 2% DMSO control. The method, boiled down: as §2
In test [7] the test system is Diplodia maydis (Dm). In words: Growth inhibition assay of fungal pathogens, Dm. The format is cell-based. The following applies: Stenocarpella maydis, 48 h, growth inhibition at 48 hours vs 2% DMSO control. The method, boiled down: as §2
Test [8] relates to Fusarium moniliforme (Fm). Description: Growth inhibition assay of fungal pathogens, Fm. The conditions noted are these: Fusarium verticillioides, 48 h, read-out: Concentration at 90% Inhibition Fm. The format is cell-based. The gist of the method:
as §2

Test [9] relates to Fusarium virguliforme (Fv). In words: Growth inhibition assay of fungal pathogens, Fv. The format is cell-based. The following applies: 48 h. The gist of the method:
as §2

Test [10] deals with Phytophthora capsici (Pc). Description: Growth inhibition assay of fungal pathogens, Pc. The format is cell-based. The conditions noted are these: 48 h. The method, boiled down: as §2
Test [11] concerns Rhizoctonia solani (Rs). In words: Growth inhibition assay of fungal pathogens, Rs. The format is cell-based. The following applies: 48 h.
The test system of test [12] is Septoria tritici (St). In words: Growth inhibition assay of fungal pathogens, St. The following applies: Zymoseptoria tritici, 48 h, growth inhibition at 48 hours vs 2% DMSO control. The format is cell-based. The method, boiled down: as §2
For test [13], the target named is fungal (fACC2) (UniProt Q00955). The conditions noted are these: read-out: fACC2 (in vitro ACC2 Inhibition Assay, IC50), ADP-Glo, 5 nM ACC2, 20 μM ATP, 20 μM acetyl-CoA. (ADP-Glo turns the ADP formed in a reaction into a luminescent signal.)
Where [14] appears, read: Table 3b (additional results), ATCC 90028, 3 replicates, MIC recorded at 48 h, read-out: MIC, C. albicans ATCC 90028.
[15] abbreviates: Table 3b (additional results), ATCC 6258, 3 replicates, MIC recorded at 48 h, read-out: MIC, C. krusei ATCC 6258.
The mark [16] stands for this setting: Table 3b (additional results), ATCC 22019, 3 replicates, MIC recorded at 48 h, read-out: MIC, C. parapsilosis ATCC 22019.
[17] abbreviates: Botrtyis cinerea, read-out: Concentration at 90% Inhibition Bc.
Where [18] appears, read: Collectotrichum graminicola, read-out: Concentration at 90% Inhibition Cg.
Where [19] appears, read: Diplodia maydis, read-out: Concentration at 90% Inhibition Dm.
[20] abbreviates: Fusarium moniliforme, growth inhibition at 48 hours vs 2% DMSO control.
The mark [21] stands for this setting: growth inhibition at 48 hours vs 2% DMSO control, read-out: Concentration at 90% Inhibition Fv.
Setting [22] is: growth inhibition at 48 hours vs 2% DMSO control, read-out: Concentration at 90% Inhibition Pc.
Setting [23] is: mycelial plugs, growth inhibition at 48 hours vs 2% DMSO control, read-out: Concentration at 90% Inhibition Rs.
Setting [24] is: Septoria tritici, read-out: Concentration at 90% Inhibition St.

Broadly, the IC50 is the point on the concentration scale where inhibition reaches its midpoint. A word on the MIC: it is the lowest concentration found to suppress growth.

Structures are written as SMILES. Values after ≈ are worked out from the molar mass of the structure shown. Where two headings read alike, the source gives them in different places.

fungal (fACC2), sequence (Q00955 whole entry): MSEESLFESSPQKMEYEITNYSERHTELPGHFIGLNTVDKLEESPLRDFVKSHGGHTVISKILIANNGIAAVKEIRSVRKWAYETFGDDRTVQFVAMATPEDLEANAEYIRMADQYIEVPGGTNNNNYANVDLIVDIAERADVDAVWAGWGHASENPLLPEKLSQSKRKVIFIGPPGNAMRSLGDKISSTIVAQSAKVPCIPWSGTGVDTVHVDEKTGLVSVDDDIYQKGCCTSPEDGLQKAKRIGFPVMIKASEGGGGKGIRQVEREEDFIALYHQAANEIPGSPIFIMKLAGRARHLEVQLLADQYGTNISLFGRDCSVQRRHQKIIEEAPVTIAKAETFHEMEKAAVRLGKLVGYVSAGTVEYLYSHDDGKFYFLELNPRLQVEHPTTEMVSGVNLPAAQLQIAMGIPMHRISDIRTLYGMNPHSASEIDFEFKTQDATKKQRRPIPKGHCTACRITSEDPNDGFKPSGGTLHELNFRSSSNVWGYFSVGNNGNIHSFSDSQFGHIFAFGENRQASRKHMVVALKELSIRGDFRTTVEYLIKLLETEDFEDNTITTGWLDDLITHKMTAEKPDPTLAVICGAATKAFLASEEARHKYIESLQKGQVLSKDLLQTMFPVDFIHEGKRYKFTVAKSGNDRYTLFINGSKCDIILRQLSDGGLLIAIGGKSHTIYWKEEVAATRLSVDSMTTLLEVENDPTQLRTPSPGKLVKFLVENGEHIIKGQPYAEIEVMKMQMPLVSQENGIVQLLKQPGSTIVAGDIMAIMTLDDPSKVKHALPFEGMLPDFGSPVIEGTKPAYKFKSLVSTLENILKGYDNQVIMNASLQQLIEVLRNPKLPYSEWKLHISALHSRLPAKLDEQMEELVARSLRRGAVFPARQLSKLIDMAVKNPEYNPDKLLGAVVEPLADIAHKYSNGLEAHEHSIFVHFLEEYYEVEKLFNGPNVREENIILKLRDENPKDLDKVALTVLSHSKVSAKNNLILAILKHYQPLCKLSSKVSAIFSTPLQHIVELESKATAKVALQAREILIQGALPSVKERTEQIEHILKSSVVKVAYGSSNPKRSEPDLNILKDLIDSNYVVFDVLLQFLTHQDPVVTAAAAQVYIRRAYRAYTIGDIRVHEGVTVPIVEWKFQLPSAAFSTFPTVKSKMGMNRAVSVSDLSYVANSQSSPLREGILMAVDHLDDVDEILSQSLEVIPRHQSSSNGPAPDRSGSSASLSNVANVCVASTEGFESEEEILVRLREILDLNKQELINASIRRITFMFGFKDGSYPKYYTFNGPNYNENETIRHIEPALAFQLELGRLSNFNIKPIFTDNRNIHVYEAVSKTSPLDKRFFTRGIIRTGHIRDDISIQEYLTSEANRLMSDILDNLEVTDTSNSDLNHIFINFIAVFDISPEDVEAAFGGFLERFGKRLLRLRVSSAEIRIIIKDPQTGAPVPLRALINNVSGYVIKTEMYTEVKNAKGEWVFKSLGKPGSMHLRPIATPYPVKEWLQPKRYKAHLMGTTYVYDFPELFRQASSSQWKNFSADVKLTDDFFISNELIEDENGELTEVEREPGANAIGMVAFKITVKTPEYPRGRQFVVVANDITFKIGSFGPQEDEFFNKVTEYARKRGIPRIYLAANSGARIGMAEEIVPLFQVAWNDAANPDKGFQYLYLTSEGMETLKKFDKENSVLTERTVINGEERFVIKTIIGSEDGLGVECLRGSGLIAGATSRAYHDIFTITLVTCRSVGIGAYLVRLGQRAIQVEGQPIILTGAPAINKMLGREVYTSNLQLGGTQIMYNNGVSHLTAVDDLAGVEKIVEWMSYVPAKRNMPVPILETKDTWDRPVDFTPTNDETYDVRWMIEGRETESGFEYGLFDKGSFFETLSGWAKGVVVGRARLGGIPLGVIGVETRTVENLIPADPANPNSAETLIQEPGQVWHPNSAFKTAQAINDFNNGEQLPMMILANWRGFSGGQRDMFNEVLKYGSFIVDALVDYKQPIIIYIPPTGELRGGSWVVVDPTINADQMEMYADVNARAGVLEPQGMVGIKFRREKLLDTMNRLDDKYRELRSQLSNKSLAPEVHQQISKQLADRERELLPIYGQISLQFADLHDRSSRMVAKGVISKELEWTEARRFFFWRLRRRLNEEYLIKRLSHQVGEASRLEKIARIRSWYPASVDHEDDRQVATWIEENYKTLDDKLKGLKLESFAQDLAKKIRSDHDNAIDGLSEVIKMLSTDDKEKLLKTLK
human (hACC2), sequence (O00763 whole entry): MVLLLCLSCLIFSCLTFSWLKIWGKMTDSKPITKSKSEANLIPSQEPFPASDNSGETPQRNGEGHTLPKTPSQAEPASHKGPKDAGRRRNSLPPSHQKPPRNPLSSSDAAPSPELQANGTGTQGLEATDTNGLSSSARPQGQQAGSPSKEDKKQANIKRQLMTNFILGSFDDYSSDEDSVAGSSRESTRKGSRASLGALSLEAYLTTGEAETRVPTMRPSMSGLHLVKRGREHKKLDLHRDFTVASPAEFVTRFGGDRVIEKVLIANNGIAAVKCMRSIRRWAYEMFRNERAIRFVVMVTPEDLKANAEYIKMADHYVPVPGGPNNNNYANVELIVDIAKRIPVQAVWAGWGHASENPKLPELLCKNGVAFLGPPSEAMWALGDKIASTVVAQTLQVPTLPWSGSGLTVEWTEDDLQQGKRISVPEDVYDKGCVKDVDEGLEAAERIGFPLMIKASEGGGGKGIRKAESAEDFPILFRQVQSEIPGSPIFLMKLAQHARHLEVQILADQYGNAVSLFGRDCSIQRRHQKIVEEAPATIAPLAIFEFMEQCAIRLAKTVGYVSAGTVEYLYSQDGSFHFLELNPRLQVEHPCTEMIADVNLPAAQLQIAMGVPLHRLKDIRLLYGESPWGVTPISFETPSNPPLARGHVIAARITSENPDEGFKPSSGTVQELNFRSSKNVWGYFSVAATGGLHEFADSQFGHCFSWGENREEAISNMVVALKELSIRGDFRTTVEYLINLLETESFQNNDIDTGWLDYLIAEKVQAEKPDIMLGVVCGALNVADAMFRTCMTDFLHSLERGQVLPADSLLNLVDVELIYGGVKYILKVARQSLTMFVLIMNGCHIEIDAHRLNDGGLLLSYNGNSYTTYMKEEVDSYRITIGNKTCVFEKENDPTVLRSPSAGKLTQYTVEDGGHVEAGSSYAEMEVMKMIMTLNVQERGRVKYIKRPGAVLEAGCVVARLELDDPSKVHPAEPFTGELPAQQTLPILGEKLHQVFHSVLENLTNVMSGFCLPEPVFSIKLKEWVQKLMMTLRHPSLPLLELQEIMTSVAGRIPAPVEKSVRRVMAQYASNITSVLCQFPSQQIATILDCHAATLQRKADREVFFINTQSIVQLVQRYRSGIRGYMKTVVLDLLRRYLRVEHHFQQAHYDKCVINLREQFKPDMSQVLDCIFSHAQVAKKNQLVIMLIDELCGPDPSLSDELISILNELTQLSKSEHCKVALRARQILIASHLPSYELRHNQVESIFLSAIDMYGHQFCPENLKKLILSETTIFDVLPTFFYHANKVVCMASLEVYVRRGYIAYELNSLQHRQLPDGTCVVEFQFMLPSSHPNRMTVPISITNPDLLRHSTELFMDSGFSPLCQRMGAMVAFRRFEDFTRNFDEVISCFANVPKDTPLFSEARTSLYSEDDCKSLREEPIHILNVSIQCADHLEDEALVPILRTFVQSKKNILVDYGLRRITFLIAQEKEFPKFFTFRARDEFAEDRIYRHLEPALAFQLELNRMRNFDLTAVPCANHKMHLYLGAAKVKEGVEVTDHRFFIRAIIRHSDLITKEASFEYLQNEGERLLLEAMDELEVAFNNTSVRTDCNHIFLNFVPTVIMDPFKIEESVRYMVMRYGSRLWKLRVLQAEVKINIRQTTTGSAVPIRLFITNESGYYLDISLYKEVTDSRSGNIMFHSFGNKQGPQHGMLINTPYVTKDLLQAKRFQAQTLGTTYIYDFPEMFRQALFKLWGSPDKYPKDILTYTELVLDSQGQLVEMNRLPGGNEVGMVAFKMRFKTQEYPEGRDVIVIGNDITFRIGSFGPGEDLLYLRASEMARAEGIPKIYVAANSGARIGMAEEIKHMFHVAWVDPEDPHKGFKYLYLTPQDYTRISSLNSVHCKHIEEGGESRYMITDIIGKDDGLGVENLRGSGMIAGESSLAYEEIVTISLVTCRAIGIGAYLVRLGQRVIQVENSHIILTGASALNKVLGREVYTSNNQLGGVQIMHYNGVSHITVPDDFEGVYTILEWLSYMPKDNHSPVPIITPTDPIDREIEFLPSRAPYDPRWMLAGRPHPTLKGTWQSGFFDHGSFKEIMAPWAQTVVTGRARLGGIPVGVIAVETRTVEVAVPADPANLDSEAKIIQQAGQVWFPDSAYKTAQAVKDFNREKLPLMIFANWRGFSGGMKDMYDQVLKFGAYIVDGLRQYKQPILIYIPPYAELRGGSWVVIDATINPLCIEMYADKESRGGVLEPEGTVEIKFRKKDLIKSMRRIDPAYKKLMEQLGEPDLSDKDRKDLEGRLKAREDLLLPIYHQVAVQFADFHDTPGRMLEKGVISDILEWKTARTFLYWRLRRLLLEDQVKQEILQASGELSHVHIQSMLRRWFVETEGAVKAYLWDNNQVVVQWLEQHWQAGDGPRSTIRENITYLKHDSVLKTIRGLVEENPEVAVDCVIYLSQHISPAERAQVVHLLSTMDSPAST

For `COc1ccc(F)cc1[C@H](Cn1c(=O)n(C(C)(C)C(=O)NC(C)C)c(=O)c2c(C)c(-n3nccn3)sc21)OCC(C)(C)C#N` [Compound I-154], the IC50 in test [1] (Table 2a) lay within 5 to 10 nM; in test [1] (Table 2b, additional results) it was 5 to 10 nM; in test [13] (Table 2a), 1 to 5 nM; in test [13] (Table 2b, additional results), 1 to 5 nM. In addition, the MIC in test [2] (read-out: MIC, C. albicans ATCC 90028, Table 3a, 3 replicates, MIC recorded at 48 h) was in the range of 0.25 to 1 mg/L (≈ 0.4 to 1.6 µM); in [2] (read-out: MIC, C. albicans ATCC 90028, Table 3b (additional results), 3 replicates, MIC recorded at 48 h), 0.25 to 1 mg/L (≈ 0.4 to 1.6 µM); in [3] (read-out: MIC, C. krusei ATCC 6258, Table 3a, 3 replicates, MIC recorded at 48 h) it was 0.25 to 1 mg/L (≈ 0.4 to 1.6 µM); in [3] (read-out: MIC, C. krusei ATCC 6258, Table 3b (additional results), 3 replicates, MIC recorded at 48 h) it was 0.25 to 1 mg/L (≈ 0.4 to 1.6 µM); in test [4] (read-out: MIC, C. parapsilosis ATCC 22019, Table 3a, 3 replicates, MIC recorded at 48 h), 0.25 to 1 mg/L (≈ 0.4 to 1.6 µM); in [4] (read-out: MIC, C. parapsilosis ATCC 22019, Table 3b (additional results), 3 replicates, MIC recorded at 48 h), 1.01 to 2 mg/L (≈ 1.61 to 3.2 µM). Also, the IC90 in [5] (read-out: Concentration at 90% Inhibition Bc, Botrtyis cinerea) is 0.4 mg/L (≈ 0.639 µM); in [6] (read-out: Concentration at 90% Inhibition Cg, Collectotrichum graminicola), 0.4 mg/L (≈ 0.639 µM); in test [7] (read-out: Concentration at 90% Inhibition Dm, Diplodia maydis) it was 0.08 mg/L (≈ 0.128 µM); in test [8], 0.08 mg/L (≈ 0.128 µM); in test [9] (read-out: Concentration at 90% Inhibition Fv, Fusarium virguliforme, growth inhibition at 48 hours vs 2% DMSO control) it was 0.4 mg/L (≈ 0.639 µM); in [10] (read-out: Concentration at 90% Inhibition Pc, Phytophthora capsici, growth inhibition at 48 hours vs 2% DMSO control) it was above 50 mg/L. In addition, the IC90 in [11] (read-out: Concentration at 90% Inhibition Rs, Rhizoctonia solani, mycelial plugs, growth inhibition at 48 hours vs 2% DMSO control) was 0.08 mg/L (≈ 0.128 µM); in test [12] (read-out: Concentration at 90% Inhibition St, Septoria tritici), above 50 mg/L.
`COc1ccc(F)cc1[C@H](Cn1c(=O)n([C@H](C)C(=O)N2CCCC2)c(=O)c2c(C)c(-n3nccn3)sc21)OCCC#N` [Compound I-187]: the IC50 in test [1] (Table 2b, additional results) was in the range of 1 to 5 nM; in test [13] (Table 2b, additional results), 1 to 5 nM. The MIC in test [2] (setting [14]) lay within 2.01 to 4 mg/L (≈ 3.37 to 6.72 µM); in test [3] (setting [15]), 2.01 to 4 mg/L (≈ 3.37 to 6.72 µM); in test [4] (setting [16]) it was 1.01 to 2 mg/L (≈ 1.7 to 3.36 µM). Besides, the IC90 is 0.4 mg/L (≈ 0.672 µM) in [5] (setting [17]); 2 mg/L (≈ 3.36 µM) in [6] (setting [18]); 2 mg/L (≈ 3.36 µM) in [7] (setting [19]); 0.08 mg/L (≈ 0.134 µM) in [8] (setting [20]); 0.4 mg/L (≈ 0.672 µM) in test [9] (setting [21]); above 50 mg/L in test [10] (setting [22]). In addition, the IC90 in [11] (setting [23]) is 0.4 mg/L (≈ 0.672 µM); in [12] (setting [24]) it was above 50 mg/L.
`COc1ccc(F)cc1[C@H](Cn1c(=O)n([C@@H](C)C(=O)N(C)C(C)C)c(=O)c2c(C)c(-n3nccn3)sc21)OCCC#N` [Compound I-188]: the 50% inhibitory concentration (IC50) was 5 to 10 nM in test [1] (Table 2b, additional results) and 0.3 to 1 nM in [13] (Table 2b, additional results). For the same compound, the minimum inhibitory concentration (MIC) in test [2] (setting [14]), in test [3] (setting [15]) and in [4] (setting [16]) was 2.01 to 4 mg/L (≈ 3.36 to 6.69 µM) throughout. Moreover, the IC90 in test [5] (setting [17]) is 2 mg/L (≈ 3.35 µM); in test [6] (setting [18]), 10 mg/L (≈ 16.7 µM); in test [7] (setting [19]), 2 mg/L (≈ 3.35 µM); in test [8] (setting [20]), 0.4 mg/L (≈ 0.669 µM); in test [9] (setting [21]) it was 2 mg/L (≈ 3.35 µM); in test [10] (setting [22]) it was above 50 mg/L. The figures for the IC90 in [11] (setting [23]) and in test [12] (setting [24]) were 2 mg/L (≈ 3.35 µM) and above 50 mg/L, respectively.
As for `COc1ccc(F)cc1[C@@H](O)Cn1c(=O)n(C(C)(C)C(N)=O)c(=O)c2c(C)c(-n3nccn3)sc21` [Compound I-194], the concentration for half-maximal inhibition (IC50) lay within 5 to 10 nM in test [1] (Table 2b, additional results) and 1 to 5 nM in [13] (Table 2b, additional results). Further, the MIC is 2.01 to 4 mg/L (≈ 4 to 7.96 µM) in test [2] (setting [14]), 2.01 to 4 mg/L (≈ 4 to 7.96 µM) in test [3] (setting [15]) and above 4.01 mg/L in test [4] (setting [16]). Further, the IC90 is 10 mg/L (≈ 19.9 µM) in [5] (setting [17]); above 50 mg/L in [6] (setting [18]); above 50 mg/L in [7] (setting [19]); 10 mg/L (≈ 19.9 µM) in [8] (setting [20]); above 50 mg/L in [9] (setting [21]); above 50 mg/L in test [10] (setting [22]). The IC90 in test [11] (setting [23]) and in test [12] (setting [24]) was above 50 mg/L in each case.

These data come from patent US10800791B2, “Triazole ACC inhibitors and uses thereof” (Gilead Apollo, LLC, priority 2015, dated 2020).
